According to patent publication US8969360B2, “Compounds useful as inhibitors of ATR kinase” (Vertex Pharmaceuticals Incorporated, priority 2013, dated 2015):

Key:
[1] = biological target: T1, ATR kinase (Homo sapiens, UniProt Q13535); assay: ATR Inhibition Assay (radioactive-phosphate incorporation); format: biochemical; details: Ki(app); 5 nM full-length ATR, 10 μM ATP, 800 μM target peptide, 25° C.
T1 construct: Assays were carried out at 25° C. in the presence of 5 nM full-length ATR
Procedure, shortened: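 Full-length ATR (5 nM) in 50 mM Tris/HCl pH 7.5, 10 mM MgCl2, 1 mM DTT, with 800 μM peptide substrate and 10 μM [γ-33P]ATP at 25 °C. Compounds (from 15 μM final, 3-fold dilutions, 7% DMSO) were preincubated 10 min; the reaction was stopped at 24 h. 33P incorporation was captured on phosphocellulose; Ki(app) was from non-linear regression of initial rates.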

[2] = system: HCT116 colorectal cancer cells; assay: Cisplatin Sensitization Assay (96 h cell viability MTS); format: cell-based; details: concentration of compound required to reduce the IC50 of Cisplatin alone by at least 3-fold; HCT116, 96 h MTS
Procedure, shortened: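 HCT116 cells received compound and cisplatin together as a full matrix of 2-fold dilutions, each from a 10 μM top final concentration. After 96 h at 37 °C and 5% CO2, viability was read by MTS (1 h, A490). The value is the compound concentration that lowers the cisplatin IC50 at least 3-fold.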

T1 sequence (Q13535 whole entry): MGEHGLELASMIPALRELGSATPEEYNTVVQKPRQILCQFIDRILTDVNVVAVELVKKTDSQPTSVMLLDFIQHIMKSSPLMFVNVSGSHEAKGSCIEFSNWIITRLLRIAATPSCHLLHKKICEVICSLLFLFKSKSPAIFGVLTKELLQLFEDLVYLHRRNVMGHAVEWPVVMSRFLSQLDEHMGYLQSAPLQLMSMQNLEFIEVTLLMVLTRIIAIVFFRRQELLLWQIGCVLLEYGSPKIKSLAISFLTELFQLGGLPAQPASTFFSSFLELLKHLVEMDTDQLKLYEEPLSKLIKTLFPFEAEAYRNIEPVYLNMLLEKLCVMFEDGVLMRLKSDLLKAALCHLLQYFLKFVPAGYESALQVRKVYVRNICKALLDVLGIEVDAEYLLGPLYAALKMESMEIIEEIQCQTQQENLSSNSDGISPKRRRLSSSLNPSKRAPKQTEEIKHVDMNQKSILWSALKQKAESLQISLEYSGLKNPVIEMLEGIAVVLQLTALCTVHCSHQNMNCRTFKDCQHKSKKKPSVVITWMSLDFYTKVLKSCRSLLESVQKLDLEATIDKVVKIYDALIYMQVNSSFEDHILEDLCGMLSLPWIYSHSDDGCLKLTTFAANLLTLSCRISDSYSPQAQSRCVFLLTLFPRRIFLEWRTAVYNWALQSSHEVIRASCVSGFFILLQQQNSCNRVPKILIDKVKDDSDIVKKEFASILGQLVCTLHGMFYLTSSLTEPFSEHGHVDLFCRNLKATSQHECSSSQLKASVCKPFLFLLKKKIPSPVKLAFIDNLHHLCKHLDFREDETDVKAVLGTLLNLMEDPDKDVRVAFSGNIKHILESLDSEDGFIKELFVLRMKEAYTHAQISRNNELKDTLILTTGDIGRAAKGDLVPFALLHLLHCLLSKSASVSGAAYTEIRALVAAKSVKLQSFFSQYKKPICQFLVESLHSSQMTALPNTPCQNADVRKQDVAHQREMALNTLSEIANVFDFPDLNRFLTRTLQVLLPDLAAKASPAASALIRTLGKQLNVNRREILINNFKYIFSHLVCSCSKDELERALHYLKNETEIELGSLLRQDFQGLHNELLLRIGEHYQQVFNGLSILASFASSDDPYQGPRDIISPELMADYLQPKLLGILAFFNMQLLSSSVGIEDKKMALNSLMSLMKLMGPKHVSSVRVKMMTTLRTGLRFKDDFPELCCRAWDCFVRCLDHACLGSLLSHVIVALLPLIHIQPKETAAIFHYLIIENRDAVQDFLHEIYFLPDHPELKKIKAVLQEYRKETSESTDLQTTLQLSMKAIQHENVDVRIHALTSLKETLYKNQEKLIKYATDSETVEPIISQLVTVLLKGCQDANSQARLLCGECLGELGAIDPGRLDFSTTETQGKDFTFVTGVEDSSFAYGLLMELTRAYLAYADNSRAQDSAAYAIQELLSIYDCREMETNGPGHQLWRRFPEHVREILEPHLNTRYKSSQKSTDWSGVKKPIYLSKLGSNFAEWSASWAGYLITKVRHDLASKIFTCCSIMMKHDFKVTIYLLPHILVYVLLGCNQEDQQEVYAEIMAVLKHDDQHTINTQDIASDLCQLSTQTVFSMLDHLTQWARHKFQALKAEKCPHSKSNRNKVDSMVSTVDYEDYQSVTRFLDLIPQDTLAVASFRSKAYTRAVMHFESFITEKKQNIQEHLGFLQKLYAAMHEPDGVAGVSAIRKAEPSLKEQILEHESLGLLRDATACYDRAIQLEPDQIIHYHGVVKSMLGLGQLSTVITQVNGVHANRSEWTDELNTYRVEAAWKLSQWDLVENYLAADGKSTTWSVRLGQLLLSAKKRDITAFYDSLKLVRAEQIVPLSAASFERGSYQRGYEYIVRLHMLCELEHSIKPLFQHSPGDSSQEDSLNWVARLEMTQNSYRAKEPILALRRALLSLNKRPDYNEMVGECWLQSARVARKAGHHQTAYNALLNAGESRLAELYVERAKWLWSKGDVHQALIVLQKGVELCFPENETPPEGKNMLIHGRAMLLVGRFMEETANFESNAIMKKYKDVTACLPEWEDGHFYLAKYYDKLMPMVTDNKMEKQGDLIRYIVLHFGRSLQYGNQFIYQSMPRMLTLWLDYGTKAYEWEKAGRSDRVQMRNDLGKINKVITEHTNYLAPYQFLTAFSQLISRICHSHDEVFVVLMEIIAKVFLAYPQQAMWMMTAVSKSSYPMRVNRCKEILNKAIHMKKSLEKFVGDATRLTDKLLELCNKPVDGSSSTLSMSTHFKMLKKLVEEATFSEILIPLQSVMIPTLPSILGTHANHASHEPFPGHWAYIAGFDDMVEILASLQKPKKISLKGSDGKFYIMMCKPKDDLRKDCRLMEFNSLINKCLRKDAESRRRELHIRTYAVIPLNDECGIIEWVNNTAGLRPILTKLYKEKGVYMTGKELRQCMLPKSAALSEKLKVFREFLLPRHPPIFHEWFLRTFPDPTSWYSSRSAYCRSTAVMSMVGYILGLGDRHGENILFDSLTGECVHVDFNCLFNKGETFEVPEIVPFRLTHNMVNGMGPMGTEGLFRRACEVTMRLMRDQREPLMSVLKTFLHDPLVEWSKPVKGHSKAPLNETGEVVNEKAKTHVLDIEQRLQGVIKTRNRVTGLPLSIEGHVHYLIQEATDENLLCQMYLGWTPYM

| SMILES | Ki [1] [µM] | Synergy with Cisplatin [2] |
| --- | --- | --- |
| COc1ccncc1NC(=O)c1c(N)nn2ccc(NCC3CCCN3C)nc12 (centres unmarked) [I-O-71] | 0.01 to 1 | + (Compounds with a Cisplatin sensitization value >0.2 μM but <5 μM are marked with “+.”) |
| COc1ccncc1NC(=O)c1c(N)nn2ccc(NCCN3CCCC3)nc12 [I-O-72, 2-amino-N-(4-methoxypyridin-3-yl)-5-((2-(pyrrolidin-1-yl)ethyl)amino)pyrazolo[1,5-a]pyrimidine-3-carboxamide] | 0.01 to 1 | + (Compounds with a Cisplatin sensitization value >0.2 μM but <5 μM are marked with “+.”) |
| COc1ccncc1NC(=O)c1c(N)nn2ccc(N(C)CC3CCCN3C)nc12 (centres unmarked) [I-O-73, 2-amino-N-(4-methoxypyridin-3-yl)-5-(methyl((1-methylpyrrolidin-2-yl)methyl)amino)pyrazolo[1,5-a]pyrimidine-3-carboxamide] | 0.01 to 1 | + (Compounds with a Cisplatin sensitization value >0.2 μM but <5 μM are marked with “+.”) |
| COc1ccncc1NC(=O)c1c(N)nn2ccc(N3CCNC(C(F)(F)F)C3)nc12 (centres unmarked) [I-O-74, 2-amino-N-(4-methoxypyridin-3-yl)-5-(3-(trifluoromethyl)piperazin-1-yl)pyrazolo[1,5-a]pyrimidine-3-carboxamide] | < 0.01 | +++ (Compounds with a Cisplatin sensitization value of <0.02 μM are marked with “+++.”) |
| COc1ccncc1NC(=O)c1c(N)nn2ccc(N3CCN4CCC[C@@H]4C3)nc12 [I-O-75, (R)-2-amino-5-(hexahydropyrrolo[1,2-a]pyrazin-2(1H)-yl)-N-(4-methoxypyridin-3-yl)pyrazolo[1,5-a]pyrimidine-3-carboxamide] | 0.01 to 1 | ++ (Compounds with a Cisplatin sensitization value>0.02 μM but <0.2 μM are marked with “++.”) |
| COc1ccncc1NC(=O)c1c(N)nn2ccc(N3CCNCC3)nc12 [I-O-76, 2-amino-N-(4-methoxypyridin-3-yl)-5-(piperazin-1-yl)pyrazolo[1,5-a]pyrimidine-3-carboxamide] | 0.01 to 1 | ++ (Compounds with a Cisplatin sensitization value>0.02 μM but <0.2 μM are marked with “++.”) |
| COc1ccncc1NC(=O)c1c(N)nn2ccc(N3CCNC(C)C3)nc12 (centres unmarked) [I-O-77, 2-amino-N-(4-methoxypyridin-3-yl)-5-(3-methylpiperazin-1-yl)pyrazolo[1,5-a]pyrimidine-3-carboxamide] | 0.01 to 1 | ++ (Compounds with a Cisplatin sensitization value>0.02 μM but <0.2 μM are marked with “++.”) |
| COc1ccncc1NC(=O)c1c(N)nn2ccc(N3CCN(C)CC3)nc12 [I-O-78, 2-amino-N-(4-methoxypyridin-3-yl)-5-(4-methylpiperazin-1-yl)pyrazolo[1,5-a]pyrimidine-3-carboxamide] | 0.01 to 1 | + (Compounds with a Cisplatin sensitization value >0.2 μM but <5 μM are marked with “+.”) |
| CC(C)Oc1ccncc1NC(=O)c1c(N)nn2ccc(N3CCN(C)CC3)nc12 [I-O-79, 2-amino-N-(4-isopropoxypyridin-3-yl)-5-(4-methylpiperazin-1-yl)pyrazolo[1,5-a]pyrimidine-3-carboxamide] | 1 to 5 | + (Compounds with a Cisplatin sensitization value >0.2 μM but <5 μM are marked with “+.”) |
| COc1ccncc1NC(=O)c1c(N)nn2ccc(N3CCC(N(C)C)CC3)nc12 [I-O-80, 2-amino-5-(4-(dimethylamino)piperidin-1-yl)-N-(4-methoxypyridin-3-yl)pyrazolo[1,5-a]pyrimidine-3-carboxamide] | 0.01 to 1 | + (Compounds with a Cisplatin sensitization value >0.2 μM but <5 μM are marked with “+.”) |
